Reference: paper PMC10157742, “Supramolecular nanofibers co-loaded with dabrafenib and doxorubicin for targeted and synergistic therapy of differentiated thyroid carcinoma” (Theranostics, 2023)

How the values were obtained:
[1] = tested on: BCPAP cells; assay: Cell apoptosis analysis, Annexin V-APC/7-AAD flow cytometry; format: cell-based, human; settings: 36 h, 0.5 µM (Dox or Da)
Procedure: Apoptosis in BCPAP cells was measured using an Annexin V-APC/7-AAD Apoptosis Detection Kit. Briefly, BCPAP cells in DMEM were seeded into 6-well plates at a density of 3×10^5 cells per well and incubated overnight. After treatment with PBS and Dox concentration of 0.5 µM for 36 h, the cells were trypsinized, collected, washed twice with cold PBS, and centrifuged at 1500 rpm for 5 min. The precipitated cells were resuspended in 500 μL Annexin V-APC binding buffer and incubated with 5 μL Annexin V-APC and 5 μL 7-AAD at room temperature for 15 min in the dark. The samples were then analyzed using a flow cytometer.

[2] = tested on: BCPAP cells; assay: In vitro cytotoxicity, MTT assay; format: cell-based; settings: Homo sapiens, 48 h, Da/Dox mass ratio 1:1, value given for Dox, n = 3
Procedure: The cytotoxicity of peptides, free agents, and the co-assemblies towards BCPAP and L02 cells was evaluated using the standard MTT assay. Briefly, the cells were seeded into 96-well plates at a density of 8×10^3 cells per well in 100μL of DMEM medium containing 10% FBS and 1% penicillin-streptomycin. After overnight pre-incubation, the cells were treated with the compound, free agents, and co-assemblies at different concentrations for 48 h. Untreated tumor cells were used as controls. Subsequently, the medium was replaced with an MTT solution (100 μL, 0.5 mg/mL) and further cultured for 4 h. Finally, the supernatant was removed and 100 μL of DMSO was added to each well to dissolve the purple crystals. Cell viability was measured using a microplate reader by recording the absorbance of the formazan product at 570 nm.

[3] = tested on: BCPAP xenograft; assay: In vivo antitumor activity; settings: NSG mice, i.v. every four days five times, 0.5 mg/kg Dox or Da, day 20, mean ± SD, n = 4
Procedure: (§1) All animal experiments were performed according to the protocol approved by the Animal Care and Use Committee of the Tianjin Medical University Cancer Institute and Hospital. NSG mice (5 weeks, female) were purchased from Gempharmatech Co., Ltd. (Jiangsu, China). […] The body weight and tumor size of each mouse were monitored and recorded every two days during the treatment process of 20 days. The tumor volume (V) was measured with a digital caliper and calculated using the equation: V= (L×W^2)/2, where W and L refer to the […] diameters of the tumors, respectively. At the end of the experiment, the mice were euthanized, and the tumor tissues and main organs (heart, liver, spleen, lung, and kidney) were photographed, weighed, and collected. Furthermore, the collected ex vivo tumors and main organs were fixed with 4% paraformaldehyde for the subsequent hematoxylin and eosin (H&E), terminal deoxynucleotidyl transferase-mediated deoxyuridine triphosphate nick end labeling (TUNEL), and immunohistochemical staining, including Ki67, BRAF V600E, p-ERK, Bcl-2, Bax and Cleaved-Caspase 3. Blood was obtained from the mouse eye socket for blood biochemistry and routine blood analysis, which was compared with the blank group without tumor inoculation.

[4] = Body weight and serum ALT in the antitumor study; format: in vivo; settings: tumor-bearing NSG mice, n = 4
Procedure: as §1

Row | Structure (SMILES) | total apoptosis rate [1] [%] | IC50 [2] [nM] | tumor weight at the end of the experiment [3] [mg] | body weight ([4]; 0.5 mg/kg i.v. every four days five times, 20 days) | serum glutamic pyruvic transaminase (ALT) level ([4]; end of the antitumor experiment)
1 | CC(C)(C)c1nc(-c2cccc(NS(=O)(=O)c3c(F)cccc3F)c2F)c(-c2ccnc(N)n2)s1 [Da, dabrafenib] | 5.17 | 2080 | 459.6 ± 43.2 |  | 
2 | COc1cccc2c1C(=O)c1c(O)c3c(c(O)c1C2=O)C[C@@](O)(C(=O)CO)C[C@@H]3O[C@H]1C[C@H](N)[C@H](O)[C@H](C)O1 [Dox, doxorubicin] | 7.08 | 1720 | 284.7 ± 36.4 | slight decrease | elevated ALT levels
